# From patent US4521335A, “Aglycone and pseudo-aglycones of the AAD 216 antibiotics” (SmithKline Beckman Corporation, priority 1984, dated 1985)
# Experiments:
# [1] = test system: inoculum (rumen cannula filtrate); assay: rumen in vitro model, growth promotant activity; conditions: for GLU (% Control): glucose; for Propionate % (% Control): propionate as percentage of total VFA; for VFA (% Control): total volatile fatty acids; for LYS (% Control): lysine
# [2] = test system: inoculum (ileal or cecal cannula filtrate); assay: swine in vitro model, growth promotant activity; conditions: 5 hours, 37° C.; for GLU (% Control): glucose; for LAC (% Control): lactic acid; for LYS (% Control): lysine; for VFA (% Control): total volatile fatty acids
compound,measurement,setting,value
CC[C@@]1([C@H]2O[C@H]([C@H]3O[C@@](O)(CO)[C@H](C)C[C@@H]3C)C[C@H]2C)CC[C@H]([C@@]2(C)CC[C@]3(C[C@H](O)[C@@H](C)[C@@H]([C@H](C)[C@H](OC)[C@@H](C)C(=O)O)O3)O2)O1 [Monensin Sodium],GLU (% Control),"[1]; experiment III, 0.5 ppm",11 % Control
same,Propionate % (% Control),"[1]; experiment III, 0.5 ppm",119 % Control
same,VFA (% Control),"[1]; experiment III, 0.5 ppm",94 % Control
same,GLU (% Control),"[1]; experiment III, 5.0 ppm",126 % Control
same,LYS (% Control),"[1]; experiment III, 5.0 ppm",141 % Control
same,Propionate % (% Control),"[1]; experiment III, 5.0 ppm",149 % Control
same,VFA (% Control),"[1]; experiment III, 5.0 ppm",104 % Control
same,GLU (% Control),"[1]; experiment III, 50.0 ppm",0 % Control
same,LYS (% Control),"[1]; experiment III, 50.0 ppm",147 % Control
same,Propionate % (% Control),"[1]; experiment III, 50.0 ppm",156 % Control
same,LYS (% Control),"[1]; experiment IV, 5.0 ppm",595 % Control
same,Propionate % (% Control),"[1]; experiment IV, 5.0 ppm",161 % Control
same,VFA (% Control),"[1]; experiment IV, 5.0 ppm",106 % Control
Virginiamycin,GLU (% Control),"[2]; experiment I, 1.67 ppm",182 % Control
same,LAC (% Control),"[2]; experiment I, 1.67 ppm",70 % Control
same,LYS (% Control),"[2]; experiment I, 1.67 ppm",82 % Control
same,GLU (% Control),"[2]; experiment I, 16.67 ppm",191 % Control
same,LAC (% Control),"[2]; experiment I, 16.67 ppm",76 % Control
same,LYS (% Control),"[2]; experiment I, 16.67 ppm",127 % Control
same,GLU (% Control),"[2]; experiment I, 166.67 ppm",197 % Control
same,LAC (% Control),"[2]; experiment I, 166.67 ppm",81 % Control
same,LYS (% Control),"[2]; experiment I, 166.67 ppm",163 % Control
same,VFA (% Control),"[2]; experiment I, 166.67 ppm",93 % Control
same,GLU (% Control),"[2]; experiment II, 1.67 ppm",837 % Control
same,LAC (% Control),"[2]; experiment II, 1.67 ppm",21 % Control
same,LYS (% Control),"[2]; experiment II, 1.67 ppm",96 % Control
same,VFA (% Control),"[2]; experiment II, 1.67 ppm",240 % Control
avoparcin,GLU (% Control),"[2]; experiment II, 1.67 ppm",115 % Control
same,LAC (% Control),"[2]; experiment II, 1.67 ppm",102 % Control
same,LYS (% Control),"[2]; experiment II, 1.67 ppm",101 % Control
